Assay results taken from US5948817A, “Polycyclic ethyl alkylamide melatonergic agents” (Bristol-Myers Squibb Company, priority 1998, dated 1999).
pIC50: −log10 of the molar value.

Biological target: T1, melatonin ML1A receptor (Homo sapiens, UniProt P48039)
T1 construct: expressed in transfected cells; membrane homogenates
Assay: Melatonergic binding (2-[125I]-iodomelatonin, membrane homogenates of NIH-3T3 cells expressing ML1A receptor)
Details: 37° C. for 1 hour, NIH-3T3 cell membranes, read-out: IC50, binding affinity for melatonin receptors
Excerpt: The compounds of the invention are melatonergic agents. […] Further, the compounds are agonists as determined by their ability, like melatonin, to block the forskolin-stimulated accumulation of cAMP in certain cells. Due to these properties, the compounds and compositions of the invention should be useful as sedatives, chronobiotic agents, anxiolytics, antipsychotics, analgesics, and the like. Specifically, these agents should find use in the treatment of stress, sleep disorders, seasonal depression, appetite regulation, shifts in circadian cycles, melancholia, jet-lag, glaucoma, reproductive disorders, cancer, premenstrual syndrome, immune disorders, inflammatory diseases, neuroendocrine disorders and related conditions.
The melatonergic binding properties of compounds of the invention were measured using the following procedure.
(a) TME=50 mM Tris buffer containing 12.5 mM MgCl2, and 2 mM EDTA, pH 7.4 at 37° C. with concentrated HCl.
(b) Wash buffer: 20 mM Tris base containing 2 mM MgCl2. pH 7.4 at room temperature.
(c) 10^-4 M melatonin (10^-5 M final concentration).
(d) 2-[^125 I]-iodomelatonin, […] final concentration.
The melatonin ML1A receptor cDNA was subcloned into pcDNA3 and introduced into NIH-3T3 cells using Lipofectamine. […]

T1 sequence (P48039 whole entry): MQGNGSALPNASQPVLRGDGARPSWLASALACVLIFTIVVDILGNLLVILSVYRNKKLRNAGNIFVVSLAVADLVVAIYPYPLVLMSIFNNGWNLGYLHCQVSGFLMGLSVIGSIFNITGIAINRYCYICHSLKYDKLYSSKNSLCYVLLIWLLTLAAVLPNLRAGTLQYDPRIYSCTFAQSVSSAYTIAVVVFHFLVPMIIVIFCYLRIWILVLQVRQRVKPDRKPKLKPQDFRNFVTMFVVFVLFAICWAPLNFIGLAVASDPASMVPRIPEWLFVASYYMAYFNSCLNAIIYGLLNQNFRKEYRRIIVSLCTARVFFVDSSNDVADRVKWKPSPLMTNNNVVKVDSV

| pIC50 | SMILES |
| --- | --- |
| > 7.60 | CCC(=O)NCCC1c2cc(OC)ccc2-c2ccc3c(c21)OCO3 (centres unmarked) [Example 2, N-[2-(8-Methoxy-10H-fluoreno[1,2-d]-1,3-dioxol-10-yl)ethyl]propanamide] |
| > 7.60 | CCC(=O)NCCC1c2ccccc2-c2ccc3c(c21)CCO3 (centres unmarked) [Example 1, N-[2-(2,10-dihydro-1H-fluoreno[2,1-b]furan-10-yl)ethyl]propanamide] |
